The solubility is the dissolved amount per volume that the medium holds. A low value points to little dissolved substance.

Two molecules from US20060073188A1, “Fast-dissolving isotropic expanded microporous composition or structure for pharmaceutical, veterinary, dietetic, food or cosmetic use and method for obtaining same” (PIERRE FABRE MEDICAMENT, priority 1999, published 2006) can be followed below.

The series is described as follows: physchem.

On to `O=c1[nH]c2ccccc2n1CCCN1CCC(n2c(=O)[nH]c3cc(Cl)ccc32)CC1` [domperidone], for which the solubility is < 100 µg/mL. Consider `CN1C(C(=O)Nc2ccccn2)=C(O)c2ccccc2S1(=O)=O` [piroxicam], for which the solubility is < 100 µg/mL.
